Key:
Type in all cases: biochemical
[1] = target: T1, Acetylcholine Esterase from Electrophorus electricus (Electrophorus electricus, UniProt O42275); assay: Esterase hydrolysis microtiter plate assay with fluorescein pH indicator, acetylcholine esterase; conditions: for hydrolysis reaction slope after three months / initial slope range and standard deviation of hydrolysis reaction: with acetylcholine esterase; for initial slope range and standard deviation of hydrolysis reaction: measured initially
T1 construct: purchased Sigma and Fluka
Method: (§1) A fluorescent pH indicator, fluorescein, was added to the reaction mixture to measure the change in acidity resulting from the hydrolysis reaction in a 96-well microtiter plate format. The fluorescence response was monitored over time to give a temporal pH-induced fluorescence pattern. […] Esterases have been used to test ester chirality (Janes et al., Chem. Eur. J, 1998, 4, 2324) and as synthetic tools for efficiently hydrolyzing a variety of esters (Ohno et al., Org. React, 1989, 37, 1). General Procedure for Enzyme-Based Sensor Array:
(§2) First, solutions of desired substrates (certain exemplary substrates are depicted in FIGS. 4 and 5) were made from 100 mM of substrate in CH3CN (or buffer, depending on the solubility of the ester). The analyte concentration was chosen to be at most one-fifth of the Michaelis constant (kM) for the esterases. All solvents and substrates were purchased from Aldrich, Sigma, and Fluka Chemical Companies and used as received.
(§3) The microtiter plate assay provides a rapid and reproducible system to measure the hydrolysis reactions. In the present example, the microtiter plate assay contained the nine esterases in different columns and the ester analytes in the different rows. Each esterase catalyzed hydrolysis reaction was addressed individually to monitor the kinetics by scanning each well independently. After preparation of the desired solutions, to the microtiter plate was first pipetted (using a pipetman) 100 μL of the substrate solution into each well. […] The plate was allowed to shake for 10 seconds before the first reading. The reader reads 15 second intervals while shaking before each read. The plate was monitored for 90 seconds by a Molecular Devices, Spectra Max Gemini, fluorescence microtiter plate reader. The reader scans each row and column of the microtiter plate reading each well individually. Therefore, each enzyme was monitored individually and the enzyme's kinetics were measured at the same point in time. […] The MATLAB program analyzes the individual interactions and separates them into clusters, which can indicate the ability of the sensor to distinguish the analytes.

nine esterases = assay: Esterase hydrolysis microtiter plate assay, nine-esterase array
Method: as §1
(§4) First, solutions of desired substrates (certain exemplary substrates are depicted in FIGS. 4 and 5) were made from 100 mM of substrate in CH3CN (or buffer, depending on the solubility of the ester). […]
(§5) The microtiter plate assay provides a rapid and reproducible system to measure the hydrolysis reactions. […] The plate was allowed to shake for 10 seconds before the first reading. The reader reads 15 second intervals while shaking before each read. The plate was monitored for 90 seconds by a Molecular Devices, Spectra Max Gemini, fluorescence microtiter plate reader. The reader scans each row and column of the microtiter plate reading each well individually. Therefore, each enzyme was monitored individually and the enzyme's kinetics were measured at the same point in time. […]

[2] = test system: Esterase from Bacillus sp. (denoted bacteria-1); assay: Esterase hydrolysis microtiter plate assay with fluorescein pH indicator, bacteria esterase 1; conditions: for Km / Vmax: Lineweaver-Burk plot, various ester concentrations, bacteria esterase 1
Method: as §1, §2
as §3, with “In” for “The microtiter plate assay provides a rapid and reproducible system to measure the hydrolysis reactions. In”
For mixture analysis, concentration runs of four esters, PA, ethyl valerate (EV), methyl nicotinate (MNI) and methyl 6-methyl nicotinate (MMNI) were performed with the nine esterases. The rates of the esterase reaction were plotted on a Lineweaver-Burk plot to determine the Km and Vmax and were used to identify subsequent mixtures of the four esters.

[3] = test system: Esterase from Bacillus thermoglucosidasius (denoted bacteria-2); assay: Esterase hydrolysis microtiter plate assay with fluorescein pH indicator, bacteria 2 esterase
Method: as §1, §4, §5

T1 sequence (O42275 24-633): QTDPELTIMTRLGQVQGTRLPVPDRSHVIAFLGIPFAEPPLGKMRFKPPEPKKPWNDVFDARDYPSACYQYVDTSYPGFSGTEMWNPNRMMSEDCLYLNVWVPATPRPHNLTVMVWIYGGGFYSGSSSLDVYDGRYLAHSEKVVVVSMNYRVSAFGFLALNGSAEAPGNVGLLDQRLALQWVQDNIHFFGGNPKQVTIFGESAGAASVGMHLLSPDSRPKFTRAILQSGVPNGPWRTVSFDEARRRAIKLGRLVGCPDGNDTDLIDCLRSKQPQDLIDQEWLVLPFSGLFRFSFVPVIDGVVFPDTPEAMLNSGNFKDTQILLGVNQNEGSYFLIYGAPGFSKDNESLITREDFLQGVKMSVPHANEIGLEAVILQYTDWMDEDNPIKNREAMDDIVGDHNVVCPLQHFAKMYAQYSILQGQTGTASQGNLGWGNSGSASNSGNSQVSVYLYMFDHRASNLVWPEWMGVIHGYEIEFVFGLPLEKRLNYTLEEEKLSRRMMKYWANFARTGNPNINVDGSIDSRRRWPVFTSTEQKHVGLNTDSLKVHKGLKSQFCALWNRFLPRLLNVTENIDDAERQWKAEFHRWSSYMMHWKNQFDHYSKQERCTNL

SMILES: CC(=O)Oc1ccccc1 [PA, Phenyl acetate]
- hydrolysis reaction slope after three months [1]: −1.5×10^3 fluorescence units/time
- initial slope range and standard deviation of hydrolysis reaction [1]: (−1.4±0.2)×10^2 fluorescence units/time
- relative rate of hydrolysis among all of the esters (nine esterases): hydrolyzed the fastest

SMILES: CCCC(=O)OCC [BA, Ethyl butyrate]
- hydrolysis reaction slope after three months [1]: −3.2×10^2 fluorescence units/time
- initial slope range and standard deviation of hydrolysis reaction [1]: (−2.9±1.6)×10^3 fluorescence units/time

SMILES: COC(=O)c1ccc(C)nc1 [methyl 6-methyl nicotinate, Methyl 6-methyl nicotinate]
- Km [2]: 2600 µM
- Vmax [2]: 4e-07 M/s

SMILES: CCCC(=O)OC [MB, methyl butyrate]
- hydrolysis reaction slope after three months [1]: −1.3×10^2 fluorescence units/time
- initial slope range and standard deviation of hydrolysis reaction [1]: (−1.3±0.01)×10^2 fluorescence units/time

SMILES: COC(=O)[C@H](C)N [LM, L-alanine methyl ester]
- hydrolysis by acetylcholine esterase [1]: hydrolyzed
- hydrolysis by bacteria 2 esterase [3]: hydrolyzes only LM
- hydrolysis by bacteria 1 esterase [2]: hydrolyzed

SMILES: COC(=O)[C@@H](C)N [DM, D-alanine methyl ester]
- hydrolysis by acetylcholine esterase [1]: hydrolyzed
- hydrolysis by bacteria 2 esterase [3]: not DM
- hydrolysis by bacteria 1 esterase [2]: hydrolyzed

SMILES: CCCCC(=O)OCC [ethyl valerate, Ethyl valerate]
- Km [2]: 1000 µM
- Vmax [2]: 2e-07 M/s

Source: US7250267B2, “Cross-reactive sensors” (priority 2001, dated 2007)
